Earlier results in US20060251750A1, “Soy formulations and their use in skin care” (priority 2002, published 2006).

Columns and labels:
[1] = test system: UV radiation; settings: lotions
[2] = test system: squamous cell carcinomas; settings: daily topical applications of lotions
[3] = test system: photocarcinogenesis; settings: hairless mice; both topical and oral administration

Row | Compound | inflammatory edema reactions induced by UV radiation [1] | suppression of contact hypersensitivity induced by UV radiation [1] | proportion of tumors progressing from benign papillomas to malignant squamous cell carcinomas [2] | size of these carcinomas [2] | initiation and promotion of photocarcinogenesis [3] | tumor incidence and multiplicity [3]
1 | Oc1ccc(C2=Cc3ccc(O)cc3OC2)cc1 [dehydroequol] | reduce | reduce | – | – | – | –
2 | Oc1ccc([C@H]2COc3cc(O)ccc3C2)cc1 [equol] | reduce | reduce | reduce | reduce | – | –
3 | O=c1c(-c2ccc(O)cc2)coc2cc(O)cc(O)c12 [genistein] | reduce | reduce | – | – | inhibit | reduction
4 | isoequol | reduce | reduce | – | – | – | –
